Test system: ERT-experienced patients with Fabry disease and migalastat-amenable GLA variants
Test: Composite clinical outcomes (CCOs) in ATTRACT (AT1001-012) and open-label extension studies AT1001-041/AT1001-042, Phase 3
Assay type: in vivo, human
Conditions: for Incidence rate of composite clinical outcomes (CCOs): all patients; for Median time to first CCO: overall
Text: Patients initiated ERT ≥12 months prior to the study.
AT1001-041 (NCT01458119) was a long-term OLE study evaluating the long-term safety and efficacy of migalastat in patients completing a previous migalastat study.
AT1001-042 (NCT02194985) is an ongoing, long-term OLE study evaluating the long-term safety and efficacy of migalastat in patients who participated in AT1001-012 or AT1001-041.
CCOs were defined prior to the planned analysis and included: • Renal events (a decrease in eGFRCKD-EPI≥15 mL/min/1.73 m^2, with the decreased eGFR<90 mL/min/1.73 m^2 relative to baseline; or an increase in 24-hour urine protein≥33%, with elevated protein≥300 mg relative to baseline) • Cardiac events (myocardial infarction; unstable cardiac angina; new symptomatic arrhythmia requiring antiarrhythmic medication, direct current cardioversion, pacemaker, or defibrillator implantation; congestive heart failure [New York Association Class III or IV]) • Cerebrovascular events (stroke or transient ischemic attack) • Death
Exposure to migalastat was calculated from the day of the first dose to the last available data point or the date of discontinuation; for this analysis, the exposure to ERT comprised the duration of participation in the ATTRACT study, and lasted up to 18 months.
Incidence rates were calculated for renal, cerebrovascular, and cardiac events separately and for the composite clinical outcomes. All individual events were accounted for when calculating incidence. Median times to the first clinical event were calculated based on the same data used for the incidence rates.
A direct comparison between migalastat and ERT was based on the 18 months exposure (the ERT data were from first 18 months in ATTRACT only); in addition, the incidence of CCOs for the whole follow-up period was calculated for migalastat (ATTRACT and subsequent OLE studies)
The long-term incidence for migalastat was calculated based on all available data for migalastat.

## Cl.OC[C@H]1NC[C@H](O)[C@@H](O)[C@H]1O [Migalastat, (2R,3S,4R,5S)-2-(hydroxymethyl) piperdine-3,4,5-triol]
First 18 months of treatment
  Incidence rate of composite clinical outcomes (CCOs): 0.41 per patient·year
long-term follow-up, at the data cutoff (median 4.8 years)
  Incidence rate of composite clinical outcomes (CCOs): 0.45 per patient·year
females, 0-4.8 years
  Median time to first composite clinical outcome: 1.15 Years
females, at 4.8 years
  Incidence rate, cardiac event: 0.02 per patient·year
  Incidence rate, cerebrovascular event: 0.02 per patient·year
  Incidence rate, death: 0 per patient·year
  Incidence rate, renal event: 0.33 per patient·year
females, at 4.8 years (data cutoff)
  Incidence rate, composite clinical outcome: 0.37 per patient·year
females, at 18 months
  Incidence rate, cardiac event: 0.05 per patient·year
  Incidence rate, cerebrovascular event: 0 per patient·year
  Incidence rate, composite clinical outcome: 0.34 per patient·year
  Incidence rate, death: 0 per patient·year
  Incidence rate, renal event: 0.29 per patient·year
males, 0-4.8 years
  Median time to first composite clinical outcome: 1.30 Years
males, at 4.8 years
  Incidence rate, cardiac event: 0.04 per patient·year
  Incidence rate, cerebrovascular event: 0.01 per patient·year
  Incidence rate, death: 0 per patient·year
  Incidence rate, renal event: 0.51 per patient·year
males, at 4.8 years (data cutoff)
  Incidence rate, composite clinical outcome: 0.56 per patient·year
males, at 18 months
  Incidence rate, cardiac event: 0.07 per patient·year
  Incidence rate, cerebrovascular event: 0 per patient·year
  Incidence rate, composite clinical outcome: 0.50 per patient·year
  Incidence rate, death: 0 per patient·year
  Incidence rate, renal event: 0.43 per patient·year
Migalastat exposure (0-4.8 years)
  Median time to first CCO: 1.17 years

B1: ERT: enzyme replacement therapy: infusion of purified α-Gal A, e.g. agalsidase alfa (Replagal) or agalsidase beta (Fabrazyme) (protein, UniProt P06280 32-429, looked up)
Alpha-galactosidase A: LDNGLARTPTMGWLHWERFMCNLDCQEEPDSCISEKLFMEMAELMVSEGWKDAGYEYLCIDDCWMAPQRDSEGRLQADPQRFPHGIRQLANYVHSKGLKLGIYADVGNKTCAGFPGSFGYYDIDAQTFADWGVDLLKFDGCYCDSLENLADGYKHMSLALNRTGRSIVYSCEWPLYMWPFQKPNYTEIRQYCNHWRNFADIDDSWKSIKSILDWTSFNQERIVDVAGPGGWNDPDMLVIGNFGLSWNQQVTQMALWAIMAAPLFMSNDLRHISPQAKALLQDKDVIAINQDPLGKQGYQLRQGDNFEVWERPLSGLAWAVAMINRQEIGGPRSYTIAVASLGKGVACNPACFITQLLPVKRKLGFYEWTSRLRSHINPTGTVLLQLENTMQMSLKDLL
First 18 months of treatment
  Incidence rate of composite clinical outcomes (CCOs): 0.85 per patient·year
females, 0-18 months
  Median time to first composite clinical outcome: 0.35 Years
females, at 18 months
  Incidence rate, cardiac event: 0.42 per patient·year
  Incidence rate, cerebrovascular event: 0 per patient·year
  Incidence rate, composite clinical outcome: 0.98 per patient·year
  Incidence rate, death: 0 per patient·year
  Incidence rate, renal event: 0.56 per patient·year
males, 0-18 months
  Median time to first composite clinical outcome: 0.25 Years
males, at 18 months
  Incidence rate, cardiac event: 0 per patient·year
  Incidence rate, cerebrovascular event: 0.10 per patient·year
  Incidence rate, composite clinical outcome: 0.68 per patient·year
  Incidence rate, death: 0 per patient·year
  Incidence rate, renal event: 0.58 per patient·year
ERT exposure (0-18 months)
  Median time to first CCO: 0.25 years

Source: US20210251972A1, “Methods Of Treating Fabry Disease” (Amicus Therapeutics, Inc., priority 2020, published 2021)
